This test deals with SARS-CoV-2 (USA-WA1/2020) in Calu-3 cells. It is filed as cell-based. The following applies: Calu-3, 48 h; for dsRNA signal, AU High: high dose (10 µM); for dsRNA signal, AU Low: low dose (100 nM).

The structures appear in SMILES notation.

Take `Cn1cc(C2=C(c3ccc(Cl)cc3Cl)C(=O)NC2=O)c2ccccc21` [SB 216763]: the “dsRNA signal, AU High” value was 596.7 AU and the “dsRNA signal, AU Low” value is recorded as 53506.5 AU.

For the compound `COc1cccc(-c2cc(=O)c3ccccc3o2)c1N` [PD98059], the “dsRNA signal, AU High” value was determined as 33353.3 AU and the “dsRNA signal, AU Low” value is given as 27955.5 AU.

Take `Cn1cc(-c2ccc(F)c(C(F)(F)F)c2)nc1C1CCN(c2ncnc3[nH]ncc23)CC1` [LY2584702]: the “dsRNA signal, AU High” value came to 5638.3 AU and the “dsRNA signal, AU Low” value turned out to be 15579.4 AU.

Regarding `CCc1cnn2c(NCc3ccc[n+]([O-])c3)cc(N3CCCC[C@H]3CCO)nc12` [Dinaciclib (SCH727965)], the “dsRNA signal, AU High” value is recorded as 10476.7 AU and the “dsRNA signal, AU Low” value turned out to be 0.0 AU.

As for `O=[N+]([O-])c1ccc(Nc2nc(N3CCOCC3)nc(N3CCOCC3)n2)cc1` [MHY1485], the “dsRNA signal, AU High” value worked out at 4962.4 AU and the “dsRNA signal, AU Low” value is 35655.5 AU.

Turning to `COc1ccc(Cl)c(Nc2nc3ccccc3nc2NS(=O)(=O)c2cccc(NC(=O)C(C)(C)N)c2)c1` [XL147], the “dsRNA signal, AU High” value amounted to 6847.8 AU and the “dsRNA signal, AU Low” value is on record as 47539.1 AU.

Take `CCn1c(=O)c(-c2cc(NC(=O)Nc3ccccc3)c(F)cc2Br)cc2cnc(NC)cc21` [DCC-2618]: the “dsRNA signal, AU High” value is recorded as 31390.7 AU and the “dsRNA signal, AU Low” value is on record as 17341.0 AU.

Take `CCOc1ccn(-c2ccc(F)cc2)c(=O)c1C(=O)Nc1ccc(Oc2ccnc(N)c2Cl)c(F)c1` [BMS-777607]: the “dsRNA signal, AU High” value worked out at 39539.6 AU and the “dsRNA signal, AU Low” value is 18689.6 AU.

Take `CN1CCN(c2ccc(Nc3cc(-c4cccc(-n5ccc6cc(C7CC7)cc(F)c6c5=O)c4CO)cn(C)c3=O)nc2)CC1` [RN486]: the “dsRNA signal, AU High” value amounted to 3432.0 AU and the “dsRNA signal, AU Low” value was 25024.9 AU.

`COc1c(Cl)cc2c([nH]c3cnccc32)c1NC(=O)c1cccnc1C` [MLN120B]: the “dsRNA signal, AU High” value is on record as 3021.2 AU and the “dsRNA signal, AU Low” value amounted to 0.0 AU.

Consider `CC(C)c1ccc2oc3nc(N)c(C(=O)O)cc3c(=O)c2c1` [Amlexanox], for which the “dsRNA signal, AU High” value came to 17956.6 AU and the “dsRNA signal, AU Low” value was 28672.3 AU.

`Cn1cnc2c(F)c(Nc3ccc(Br)cc3Cl)c(C(=O)NOCCO)cc21` [AZD6244 (Selumetinib)]: the “dsRNA signal, AU High” value was 7299.3 AU and the “dsRNA signal, AU Low” value is listed as 3732.5 AU.

Turning to `COc1cc(C(=O)NC2CCN(C)CC2)c(F)cc1Nc1ncc2c(n1)N(C1CCCC1)CC(F)(F)C(=O)N2C` [TAK960], the “dsRNA signal, AU High” value amounted to 9929.6 AU and the “dsRNA signal, AU Low” value is recorded as 56355.2 AU.

`CCCCCCCCCCCCCC(=O)O[C@@H]1[C@@H](C)[C@@]2(O)[C@@H](C=C(CO)C[C@]3(O)C(=O)C(C)=C[C@@H]23)[C@@H]2C(C)(C)[C@]12OC(C)=O`: the “dsRNA signal, AU High” value came to 6922.4 AU and the “dsRNA signal, AU Low” value was determined as 0.0 AU.

Take `Cc1cccc(-c2[nH]c(C(C)(C)C)nc2-c2ccc3nccnc3c2)n1` [SB525334]: the “dsRNA signal, AU High” value amounted to 34680.3 AU and the “dsRNA signal, AU Low” value is 27941.4 AU.

`CC1=C(C(=O)Nc2cc3cn[nH]c3cc2F)C(c2ccc(C(F)(F)F)cc2)CC(=O)N1` (centres unmarked) [GSK429286A]: the “dsRNA signal, AU High” value is 10329.9 AU and the “dsRNA signal, AU Low” value is reported as 34075.4 AU.

With `O=C1NC(=O)C(c2cnc3ccccn23)=C1c1cn2c3c(cc(F)cc13)CN(C(=O)N1CCCCC1)CC2` [LY2090314], the “dsRNA signal, AU High” value is 16169.3 AU and the “dsRNA signal, AU Low” value worked out at 7523.7 AU.

`Cc1cn(-c2cc(NC(=O)c3ccc(C)c(Nc4nccc(-c5cccnc5)n4)c3)cc(C(F)(F)F)c2)cn1` [Nilotinib(AMN-107)]: the “dsRNA signal, AU High” value amounted to 28653.4 AU and the “dsRNA signal, AU Low” value is given as 33622.0 AU.

In the case of `COCC(=O)NC/C=C/c1ccc2ncnc(Nc3ccc(Oc4ccc(C)nc4)c(C)c3)c2c1` [CP-724714], the “dsRNA signal, AU High” value is recorded as 1118.3 AU and the “dsRNA signal, AU Low” value is reported as 29983.8 AU.

These data come from article PMC12142043, “Cell-based high-content approach for SARS-CoV-2 neutralization identifies unique monoclonal antibodies and PI3K pathway inhibitors” (Frontiers in Cell and Developmental Biology, 2025).
